Test [1] addresses T1, Sentrin-specific protease 1 (Homo sapiens) (UniProt Q9P0U3).
T1 sequence (whole entry): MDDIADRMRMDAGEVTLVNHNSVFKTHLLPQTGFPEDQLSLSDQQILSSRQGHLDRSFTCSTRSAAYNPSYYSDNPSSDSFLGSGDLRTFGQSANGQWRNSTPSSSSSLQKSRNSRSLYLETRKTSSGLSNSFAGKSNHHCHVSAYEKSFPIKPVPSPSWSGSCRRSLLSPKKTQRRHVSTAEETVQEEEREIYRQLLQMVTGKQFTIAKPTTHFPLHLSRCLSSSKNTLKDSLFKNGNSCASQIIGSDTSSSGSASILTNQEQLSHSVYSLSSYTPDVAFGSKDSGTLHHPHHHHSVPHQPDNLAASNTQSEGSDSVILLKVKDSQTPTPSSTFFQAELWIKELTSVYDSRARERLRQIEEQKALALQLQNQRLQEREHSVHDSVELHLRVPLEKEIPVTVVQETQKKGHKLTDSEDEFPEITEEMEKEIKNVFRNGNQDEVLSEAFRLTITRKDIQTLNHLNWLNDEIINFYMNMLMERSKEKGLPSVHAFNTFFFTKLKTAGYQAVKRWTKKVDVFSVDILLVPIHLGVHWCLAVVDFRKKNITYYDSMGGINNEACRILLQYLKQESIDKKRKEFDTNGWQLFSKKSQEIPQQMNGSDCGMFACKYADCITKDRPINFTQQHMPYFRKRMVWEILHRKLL
Briefly: Inhibition of recombinant human SENP1 assessed as reduction in deSUMOylation of RanGAP1-SUMO1 at 5 uM using RanGAP1-SUMO1 as substrate preincubated for 10 mins followed by substrate addition and measured after 30 mins relative to control. Conditions: time 40.0 min.

The subject of test [2] is SK-OV-3. Description: Reversal of platinum resistance in cisplatin-resistant human SK-OV-3 cells assessed as reduction in cisplatin IC50 after 48 hrs in presence of cisplatin by SRB assay (reference value: 28.23 microM). The following applies: SK-OV-3, 48 h. Type of test: functional, cell-based. For orientation: The SRB assay estimates cell density from bound dye.
The test system of test [3] is SK-OV-3. Briefly: Cytotoxicity against human SK-OV-3 cells assessed as reduction in cell viability incubated for 48 hrs by SRB assay. Type of test: functional, cell-based. The following applies: SK-OV-3, 48 h.
Test [4] relates to SK-OV-3. Description: Cytotoxicity against human SK-OV-3 cells assessed as reduction in cell viability at 25 uM incubated for 48 hrs by SRB assay. The test is classed as functional, cell-based.
In test [5] the test system is SK-OV-3. Briefly: Cytotoxicity against human SK-OV-3 cells assessed as cell viability at 500 uM incubated for 48 hrs by SRB assay. The following applies: read-out: Activity. The test is classed as functional.
The test system of test [6] is SK-OV-3. Description: Synergistic reversal of platinum resistance in cisplatin-resistant human SK-OV-3 cells assessed as combination index after 48 hrs in presence of cisplatin by SRB assay. Type of test: functional.
Test [7] addresses T1, Sentrin-specific protease 1 (Homo sapiens). Description: Inhibition of SENP1 in human SK-OV-3 cells assessed as increase in SUMOlytated JAK2 level at 5 uM after 48 hrs by immunoprecipitation method. Type of test: cell-based.
Test [8] shares this target. Briefly: (§1) Inhibition of recombinant human SENP1 assessed as reduction in deSUMOylation using RanGAP1-SUMO1 as substrate preincubated for 10 mins followed by substrate addition and measured after 30 mins. Conditions: time 40.0 min, DDE = dose-dependent effect.
In test [9] the target is T2, Sentrin-specific protease 1 (Homo sapiens, UniProt Q9P0U3).
T2 sequence (Q9P0U3 whole entry): T1 sequence (whole entry)
The description is as §1.

pIC50: −log10 of the molar value. Active and inactive are the calls of the source. No cut-off for these calls is given here.

Broadly, the inhibition is the share of the control response that was lost under treatment. With `C[C@H]1[C@H](C)CC[C@]2(CO)CC[C@]3(C)C(=CC[C@@H]4[C@@]5(C)CC[C@H](O)C(C)(C)[C@@H]5CC[C@]43C)[C@H]12`, in test [1], the inhibition stood at 58.4%. The pIC50 is −log10 of the IC50, conventionally taken in molar units. Regarding `C[C@H]1[C@H](C)CC[C@]2(C(=O)O)CC[C@]3(C)C(=CC[C@@H]4[C@@]5(C)C[C@@H](O)[C@H](O)C(C)(C)[C@@H]5CC[C@]43C)[C@H]12` [COROSOLIC ACID], the pIC50 in the test on SK-OV-3 [2] is 4.58; with SK-OV-3 [3], 4.98. Besides, the result in the test on SK-OV-3 [4] was Active. In addition, the inhibition in test [1] amounted to 34.4%. Regarding `C[C@@H]1CC[C@]2(C(=O)O)CC[C@]3(C)C(=CC[C@@H]4[C@@]5(C)CC[C@H](O)C(C)(C)[C@@H]5CC[C@]43C)[C@@H]2[C@]1(C)O` [POMOLIC ACID], the pIC50 was 5.43 in the test on SK-OV-3 [2], 4.29 in the test on SK-OV-3 [3] and 5.29 in test [9]. Besides, the viability at 500 µM with SK-OV-3 [5] is > 25%. Besides, the values for the inhibition in [1] and in [8] were > 100% and “Dde”, respectively. Moreover, the CI in the test on SK-OV-3 [6] turned out to be 0.23. Besides, in test [7], the inhibition entry is “Active”.

With `C[C@@H]1CC[C@]2(C(=O)O)CC[C@]3(C)C(=CC[C@@H]4[C@@]5(C)[C@H](O)[C@@H](O)[C@H](O)C(C)(C)[C@@H]5CC[C@]43C)[C@@H]2[C@]1(C)O`, the inhibition in test [1] turned out to be 78.4%. On the same count and under the same terms, then `C[C@H]1[C@H](C)CC[C@]2(C(=O)O)CC[C@]3(C)C(=CC[C@@H]4[C@@]5(C)C[C@@H](O)[C@H](O)[C@@](C)(CO)[C@@H]5CC[C@]43C)[C@H]12`, with 6.6%. The same measure, in the same setting: the result for `C[C@@H]1CC[C@]2(C(=O)O)CC[C@]3(C)C(=CC[C@@H]4[C@@]5(C)C[C@@H](O)[C@@H](O)C(C)(C)[C@@H]5CC[C@]43C)[C@@H]2[C@]1(C)O` reads 66.6%. Same read-out and setting: the result for `C[C@@H]1CC[C@]2(C(=O)O)CC[C@]3(C)C(=CC[C@@H]4[C@@]5(C)C[C@H](O)[C@H](O)C(C)(C)[C@@H]5CC[C@]43C)[C@@H]2[C@]1(C)O` reads 1.7%. On to `C[C@@H]1CC[C@]2(C(=O)O)CC[C@]3(C)C(=CC[C@@H]4[C@@]5(C)C[C@@H](O)[C@H](O)C(C)(C)[C@@H]5CC[C@]43C)[C@@H]2[C@]1(C)O` [TOMENTIC ACID], for which the pIC50 with SK-OV-3 [2] is 5.62; in the test on SK-OV-3 [3], 4.63; in test [9] it was 5.37. Also, in the test on SK-OV-3 [5], the viability at 500 µM is > 25%. The inhibition in test [1] was > 100%; in test [8], “Dde”. For the same compound, the CI in the test on SK-OV-3 [6] was 0.3. Also, the inhibition entry in [7] was “Active”.

With `C[C@H]1[C@H](C)CC[C@]2(C(=O)O)CC[C@]3(C)C(=CC[C@@H]4[C@@]5(C)CC[C@@H](O)C(C)(C)[C@@H]5CC[C@]43C)[C@H]12`, the inhibition in test [1] is 8.4%. Regarding `C[C@H]1[C@H](C)CC[C@]2(C)CC[C@]3(C)C(=CC(=O)[C@@H]4[C@@]5(C)CC[C@@H](O)[C@](C)(C(=O)O)[C@@H]5CC[C@]43C)[C@H]12`, the inhibition in test [1] was found to be 8.9%. Still for that read-out and setting: the result for `C[C@@H]1CC[C@]2(C(=O)O)CC[C@]3(C)C(=CC[C@@H]4[C@@]5(C)CC[C@H](O)[C@@](C)(CO)[C@@H]5[C@H](O)C[C@]43C)[C@@H]2[C@]1(C)O` reads 0.5%; that for `C=C(C)[C@@H]1CC[C@]2(C)[C@H](CC=C3[C@@H]4[C@@H](C)[C@H](C)CC[C@]4(C)CC[C@]32C)[C@@]1(C)CCC(=O)O`, 5.5%. Same read-out and setting: then `C[C@H]1[C@H](C)CC[C@]2(C(=O)O)CC[C@]3(C)C(=CC[C@@H]4[C@@]5(C)CC[C@H](O)C(C)(C)[C@@H]5CC[C@]43C)[C@H]12`, with 87.6%.

In the case of `C[C@@H]1CC[C@]2(C(=O)O)CC[C@]3(C)C(=CC[C@@H]4[C@@]5(C)CC[C@H](O)C(C)(C)[C@@H]5[C@H](O)C[C@]43C)[C@@H]2[C@]1(C)O`, in [1], the inhibition amounted to 3.2%. As to `C[C@H]1[C@H](C)CC[C@]2(C)CC[C@]3(C)C(=CC[C@@H]4[C@@]5(C)CC[C@@H](O)[C@](C)(C(=O)O)[C@@H]5CC[C@]43C)[C@H]12`, the inhibition in [1] stood at 3.9%. In the case of `C[C@@H]1CC[C@]2(C(=O)O)CC[C@]3(C)C(=CC[C@@H]4[C@@]5(C)[C@H](O)C(=O)[C@H](O)C(C)(C)[C@@H]5CC[C@]43C)[C@@H]2[C@]1(C)O`, the inhibition in test [1] is 1.9%.

As to `CC1(C)CC[C@]2(C(=O)O)[C@H](O)C[C@]3(C)C(=CC[C@@H]4[C@@]5(C)CC[C@H](O)C(C)(C)[C@@H]5CC[C@]43C)[C@@H]2C1`, the pIC50 in the test with SK-OV-3 [2] was 4.67; in the test with SK-OV-3 [3], 4.02. As for `C[C@@H]1[C@H]2C3=CC[C@@H]4[C@@]5(C)CC[C@H](O)C(C)(C)[C@@H]5CC[C@@]4(C)[C@]3(C)CC[C@@]2(C)CC[C@H]1C(=O)O`, the inhibition in [1] was determined as 69.2%.

`C[C@@H]1[C@H]2C3=CC[C@@H]4[C@@]5(C)CC[C@@H](O)C(C)(C)[C@@H]5CC[C@@]4(C)[C@]3(C)CC[C@@]2(C)[C@@H](O)C[C@H]1C(=O)O`: the inhibition in test [1] is 65.5%. Turning to `C[C@@H]1CC[C@]2(C(=O)O)CC[C@]3(C)C(=CC[C@@H]4[C@@]5(C)CC[C@@H](O)[C@](C)(CO)[C@@H]5CC[C@]43C)[C@@H]2[C@]1(C)O`, in test [1], the inhibition was found to be 19.9%.

In the case of `C[C@@H]1CC[C@]2(C(=O)O)CC[C@]3(C)C(=CC[C@@H]4[C@@]5(C)C=C(O)C(=O)C(C)(C)[C@@H]5CC[C@]43C)[C@@H]2[C@]1(C)O`, the inhibition in test [1] was 6%.

Values taken from ChEMBL document CHEMBL5120854, “Discovery of Natural Ursane-type SENP1 Inhibitors and the Platinum Resistance Reversal Activity Against Human Ovarian Cancer Cells: A Structure-Activity Relationship Study” (J Nat Prod, 2022).
